Test results taken from patent US7118895B2, “Process for producing aglycon by using diglycosidase and flavor-improved food containing the aglycon and converting agent to be used in the process” (Amano Enzyme Inc., priority 2000, dated 2006).

System: Crude diglycosidase
Test: Examination of pH in the conversion into isoflavone aglycons by diglycosidase using soybean materials
Assay type: biochemical, Penicillium multicolor IAM7153
Conditions: for Decomposition efficiency of glycitin family in roasted soy flour / Decomposition efficiency of glycitin family in soymilk: 55° C.
How it was run: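 HPLC readout: isoflavone glycosides vs aglycons. Substrates: 50 mg soy material (roasted flour, soymilk, defatted bean, concentrated protein), pH 2–11 (HCl/NaOH). Crude diglycosidase solution 1.88 AU/mL, matched pH; 55° C; quenched with ethanol at 0/1/3/6 h; centrifuged 15,000 rpm, 4° C, 10 min.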

[1] = pH6.6, heat treatment of enzyme: no, reaction time 0 h
[2] = pH6.6, heat treatment of enzyme: no, reaction time 1 h
[3] = pH6.6, heat treatment of enzyme: no, reaction time 3 h
[4] = pH6.6, heat treatment of enzyme: no, reaction time 6 h
[5] = pH6.6, heat treatment of enzyme: yes, reaction time 6 h

## COc1cc2c(=O)c(-c3ccc(O)cc3)coc2cc1O[C@@H]1O[C@H](CO)[C@@H](O)[C@H](O)[C@H]1O [glycitin]
pH1.6, heat treatment of enzyme: no, reaction time 0 h
  Decomposition efficiency of glycitin family in concentrated soybean protein: 52.3%
pH1.6, heat treatment of enzyme: no, reaction time 1 h
  Decomposition efficiency of glycitin family in concentrated soybean protein: 52.9%
pH1.6, heat treatment of enzyme: no, reaction time 3 h
  Decomposition efficiency of glycitin family in concentrated soybean protein: 54.3%
pH1.6, heat treatment of enzyme: no, reaction time 6 h
  Decomposition efficiency of glycitin family in concentrated soybean protein: 56.1%
pH1.6, heat treatment of enzyme: yes, reaction time 6 h
  Decomposition efficiency of glycitin family in concentrated soybean protein: 57.9%
pH2, heat treatment of enzyme no, reaction time 0 h
  Decomposition efficiency of glycitin family in roasted soy flour: 56.8
pH2, heat treatment of enzyme no, reaction time 1 h
  Decomposition efficiency of glycitin family in roasted soy flour: 56.6
pH2, heat treatment of enzyme no, reaction time 3 h
  Decomposition efficiency of glycitin family in roasted soy flour: 56.3
pH2, heat treatment of enzyme no, reaction time 6 h
  Decomposition efficiency of glycitin family in roasted soy flour: 54.4
pH2, heat treatment of enzyme yes, reaction time 6 h
  Decomposition efficiency of glycitin family in roasted soy flour: 54.4
pH2.3, heat treatment of enzyme no, reaction time 0 h
  Decomposition efficiency of glycitin family in soymilk: 50.2
pH2.3, heat treatment of enzyme no, reaction time 1 h
  Decomposition efficiency of glycitin family in soymilk: not detected
pH2.3, heat treatment of enzyme no, reaction time 3 h
  Decomposition efficiency of glycitin family in soymilk: not detected
pH2.3, heat treatment of enzyme no, reaction time 6 h
  Decomposition efficiency of glycitin family in soymilk: not detected
pH2.3, heat treatment of enzyme yes, reaction time 6 h
  Decomposition efficiency of glycitin family in soymilk: 51.7
pH2.6, heat treatment of enzyme: no, reaction time 0 h
  Decomposition efficiency of glycitin family in defatted soybean: not detected
pH2.6, heat treatment of enzyme: no, reaction time 1 h
  Decomposition efficiency of glycitin family in defatted soybean: not detected
pH2.6, heat treatment of enzyme: no, reaction time 3 h
  Decomposition efficiency of glycitin family in defatted soybean: not detected
pH2.6, heat treatment of enzyme: no, reaction time 6 h
  Decomposition efficiency of glycitin family in defatted soybean: not detected
pH2.6, heat treatment of enzyme: yes, reaction time 6 h
  Decomposition efficiency of glycitin family in defatted soybean: not detected
pH2.7, heat treatment of enzyme: no, reaction time 0 h
  Decomposition efficiency of glycitin family in concentrated soybean protein: 52.3%
pH2.7, heat treatment of enzyme: no, reaction time 1 h
  Decomposition efficiency of glycitin family in concentrated soybean protein: 38.0%
pH2.7, heat treatment of enzyme: no, reaction time 3 h
  Decomposition efficiency of glycitin family in concentrated soybean protein: 37.2%
pH2.7, heat treatment of enzyme: no, reaction time 6 h
  Decomposition efficiency of glycitin family in concentrated soybean protein: 33.7%
pH2.7, heat treatment of enzyme: yes, reaction time 6 h
  Decomposition efficiency of glycitin family in concentrated soybean protein: 52.7%
pH3, heat treatment of enzyme no, reaction time 0 h
  Decomposition efficiency of glycitin family in roasted soy flour: 56.8
pH3, heat treatment of enzyme no, reaction time 1 h
  Decomposition efficiency of glycitin family in roasted soy flour: not detected
pH3, heat treatment of enzyme no, reaction time 3 h
  Decomposition efficiency of glycitin family in roasted soy flour: not detected
pH3, heat treatment of enzyme no, reaction time 6 h
  Decomposition efficiency of glycitin family in roasted soy flour: not detected
pH3, heat treatment of enzyme yes, reaction time 6 h
  Decomposition efficiency of glycitin family in roasted soy flour: 55.1
pH3.4, heat treatment of enzyme: no, reaction time 0 h
  Decomposition efficiency of glycitin family in defatted soybean: not detected
pH3.4, heat treatment of enzyme: no, reaction time 1 h
  Decomposition efficiency of glycitin family in defatted soybean: not detected
pH3.4, heat treatment of enzyme: no, reaction time 3 h
  Decomposition efficiency of glycitin family in defatted soybean: not detected
pH3.4, heat treatment of enzyme: no, reaction time 6 h
  Decomposition efficiency of glycitin family in defatted soybean: not detected
pH3.4, heat treatment of enzyme: yes, reaction time 6 h
  Decomposition efficiency of glycitin family in defatted soybean: not detected
pH3.5, heat treatment of enzyme no, reaction time 0 h
  Decomposition efficiency of glycitin family in soymilk: 50.2
pH3.5, heat treatment of enzyme no, reaction time 1 h
  Decomposition efficiency of glycitin family in soymilk: not detected
pH3.5, heat treatment of enzyme no, reaction time 3 h
  Decomposition efficiency of glycitin family in soymilk: not detected
pH3.5, heat treatment of enzyme no, reaction time 6 h
  Decomposition efficiency of glycitin family in soymilk: not detected
pH3.5, heat treatment of enzyme yes, reaction time 6 h
  Decomposition efficiency of glycitin family in soymilk: 54.2
pH3.7, heat treatment of enzyme: no, reaction time 0 h
  Decomposition efficiency of glycitin family in concentrated soybean protein: 52.4%
pH3.7, heat treatment of enzyme: no, reaction time 1 h
  Decomposition efficiency of glycitin family in concentrated soybean protein: not detected
pH3.7, heat treatment of enzyme: no, reaction time 3 h
  Decomposition efficiency of glycitin family in concentrated soybean protein: not detected
pH3.7, heat treatment of enzyme: no, reaction time 6 h
  Decomposition efficiency of glycitin family in concentrated soybean protein: not detected
pH3.7, heat treatment of enzyme: yes, reaction time 6 h
  Decomposition efficiency of glycitin family in concentrated soybean protein: 52.4%
pH4, heat treatment of enzyme no, reaction time 0 h
  Decomposition efficiency of glycitin family in roasted soy flour: 56.6
pH4, heat treatment of enzyme no, reaction time 1 h
  Decomposition efficiency of glycitin family in roasted soy flour: not detected
pH4, heat treatment of enzyme no, reaction time 3 h
  Decomposition efficiency of glycitin family in roasted soy flour: not detected
pH4, heat treatment of enzyme no, reaction time 6 h
  Decomposition efficiency of glycitin family in roasted soy flour: not detected
pH4, heat treatment of enzyme yes, reaction time 6 h
  Decomposition efficiency of glycitin family in roasted soy flour: 55.1
pH4.8, heat treatment of enzyme no, reaction time 0 h
  Decomposition efficiency of glycitin family in soymilk: 50.7
pH4.8, heat treatment of enzyme no, reaction time 1 h
  Decomposition efficiency of glycitin family in soymilk: not detected
pH4.8, heat treatment of enzyme no, reaction time 3 h
  Decomposition efficiency of glycitin family in soymilk: not detected
pH4.8, heat treatment of enzyme no, reaction time 6 h
  Decomposition efficiency of glycitin family in soymilk: not detected
pH4.8, heat treatment of enzyme yes, reaction time 6 h
  Decomposition efficiency of glycitin family in soymilk: 54.3
pH4.8, heat treatment of enzyme: no, reaction time 0 h
  Decomposition efficiency of glycitin family in defatted soybean: not detected
pH4.8, heat treatment of enzyme: no, reaction time 1 h
  Decomposition efficiency of glycitin family in defatted soybean: not detected
pH4.8, heat treatment of enzyme: no, reaction time 3 h
  Decomposition efficiency of glycitin family in defatted soybean: not detected
pH4.8, heat treatment of enzyme: no, reaction time 6 h
  Decomposition efficiency of glycitin family in defatted soybean: not detected
pH4.8, heat treatment of enzyme: yes, reaction time 6 h
  Decomposition efficiency of glycitin family in defatted soybean: not detected
pH5, heat treatment of enzyme no, reaction time 0 h
  Decomposition efficiency of glycitin family in roasted soy flour: 56.6
pH5, heat treatment of enzyme no, reaction time 1 h
  Decomposition efficiency of glycitin family in roasted soy flour: not detected
pH5, heat treatment of enzyme no, reaction time 3 h
  Decomposition efficiency of glycitin family in roasted soy flour: not detected
pH5, heat treatment of enzyme no, reaction time 6 h
  Decomposition efficiency of glycitin family in roasted soy flour: not detected
pH5, heat treatment of enzyme yes, reaction time 6 h
  Decomposition efficiency of glycitin family in roasted soy flour: 55.4
pH5.1, heat treatment of enzyme: no, reaction time 0 h
  Decomposition efficiency of glycitin family in concentrated soybean protein: 52.4%
pH5.1, heat treatment of enzyme: no, reaction time 1 h
  Decomposition efficiency of glycitin family in concentrated soybean protein: 4.1%
pH5.1, heat treatment of enzyme: no, reaction time 3 h
  Decomposition efficiency of glycitin family in concentrated soybean protein: not detected
pH5.1, heat treatment of enzyme: no, reaction time 6 h
  Decomposition efficiency of glycitin family in concentrated soybean protein: not detected
pH5.1, heat treatment of enzyme: yes, reaction time 6 h
  Decomposition efficiency of glycitin family in concentrated soybean protein: 52.3%
pH5.4, heat treatment of enzyme: no, reaction time 0 h
  Decomposition efficiency of glycitin family in defatted soybean: not detected
pH5.4, heat treatment of enzyme: no, reaction time 1 h
  Decomposition efficiency of glycitin family in defatted soybean: not detected
pH5.4, heat treatment of enzyme: no, reaction time 3 h
  Decomposition efficiency of glycitin family in defatted soybean: not detected
pH5.4, heat treatment of enzyme: no, reaction time 6 h
  Decomposition efficiency of glycitin family in defatted soybean: not detected
pH5.4, heat treatment of enzyme: yes, reaction time 6 h
  Decomposition efficiency of glycitin family in defatted soybean: not detected
pH6.2, heat treatment of enzyme no, reaction time 0 h
  Decomposition efficiency of glycitin family in soymilk: 50.7
pH6.2, heat treatment of enzyme no, reaction time 1 h
  Decomposition efficiency of glycitin family in soymilk: not detected
pH6.2, heat treatment of enzyme no, reaction time 3 h
  Decomposition efficiency of glycitin family in soymilk: not detected
pH6.2, heat treatment of enzyme no, reaction time 6 h
  Decomposition efficiency of glycitin family in soymilk: not detected
pH6.2, heat treatment of enzyme yes, reaction time 6 h
  Decomposition efficiency of glycitin family in soymilk: 54.2
pH6.5, heat treatment of enzyme no, reaction time 0 h
  Decomposition efficiency of glycitin family in roasted soy flour: 55.9
pH6.5, heat treatment of enzyme no, reaction time 1 h
  Decomposition efficiency of glycitin family in roasted soy flour: not detected
pH6.5, heat treatment of enzyme no, reaction time 3 h
  Decomposition efficiency of glycitin family in roasted soy flour: not detected
pH6.5, heat treatment of enzyme no, reaction time 6 h
  Decomposition efficiency of glycitin family in roasted soy flour: not detected
pH6.5, heat treatment of enzyme yes, reaction time 6 h
  Decomposition efficiency of glycitin family in roasted soy flour: 54.8
[1]
  Decomposition efficiency of glycitin family in concentrated soybean protein: 52.2%
  Decomposition efficiency of glycitin family in defatted soybean: not detected
[2]
  Decomposition efficiency of glycitin family in concentrated soybean protein: 22.6%
  Decomposition efficiency of glycitin family in defatted soybean: not detected
[3]
  Decomposition efficiency of glycitin family in concentrated soybean protein: 6.9%
  Decomposition efficiency of glycitin family in defatted soybean: not detected
[4]
  Decomposition efficiency of glycitin family in concentrated soybean protein: 2.0%
  Decomposition efficiency of glycitin family in defatted soybean: not detected
[5]
  Decomposition efficiency of glycitin family in concentrated soybean protein: 53.3%
  Decomposition efficiency of glycitin family in defatted soybean: not detected
pH7.2, heat treatment of enzyme no, reaction time 0 h
  Decomposition efficiency of glycitin family in soymilk: 50.0
pH7.2, heat treatment of enzyme no, reaction time 1 h
  Decomposition efficiency of glycitin family in soymilk: not detected
pH7.2, heat treatment of enzyme no, reaction time 3 h
  Decomposition efficiency of glycitin family in soymilk: not detected
pH7.2, heat treatment of enzyme no, reaction time 6 h
  Decomposition efficiency of glycitin family in soymilk: not detected
pH7.2, heat treatment of enzyme yes, reaction time 6 h
  Decomposition efficiency of glycitin family in soymilk: 56.9
pH7.8, heat treatment of enzyme: no, reaction time 0 h
  Decomposition efficiency of glycitin family in defatted soybean: not detected
pH7.8, heat treatment of enzyme: no, reaction time 1 h
  Decomposition efficiency of glycitin family in defatted soybean: not detected
pH7.8, heat treatment of enzyme: no, reaction time 3 h
  Decomposition efficiency of glycitin family in defatted soybean: not detected
pH7.8, heat treatment of enzyme: no, reaction time 6 h
  Decomposition efficiency of glycitin family in defatted soybean: not detected
pH7.8, heat treatment of enzyme: yes, reaction time 6 h
  Decomposition efficiency of glycitin family in defatted soybean: not detected
pH8.5, heat treatment of enzyme no, reaction time 0 h
  Decomposition efficiency of glycitin family in roasted soy flour: 59.4
pH8.5, heat treatment of enzyme no, reaction time 1 h
  Decomposition efficiency of glycitin family in roasted soy flour: 39.4
pH8.5, heat treatment of enzyme no, reaction time 3 h
  Decomposition efficiency of glycitin family in roasted soy flour: 29.3
pH8.5, heat treatment of enzyme no, reaction time 6 h
  Decomposition efficiency of glycitin family in roasted soy flour: 22.4
pH8.5, heat treatment of enzyme yes, reaction time 6 h
  Decomposition efficiency of glycitin family in roasted soy flour: 59.2
pH8.6, heat treatment of enzyme: no, reaction time 0 h
  Decomposition efficiency of glycitin family in concentrated soybean protein: 54.9%
pH8.6, heat treatment of enzyme: no, reaction time 1 h
  Decomposition efficiency of glycitin family in concentrated soybean protein: 51.6%
pH8.6, heat treatment of enzyme: no, reaction time 3 h
  Decomposition efficiency of glycitin family in concentrated soybean protein: 45.9%
pH8.6, heat treatment of enzyme: no, reaction time 6 h
  Decomposition efficiency of glycitin family in concentrated soybean protein: 36.7%
pH8.6, heat treatment of enzyme: yes, reaction time 6 h
  Decomposition efficiency of glycitin family in concentrated soybean protein: 56.8%
pH11.6, heat treatment of enzyme no, reaction time 0 h
  Decomposition efficiency of glycitin family in soymilk: 54.3
pH11.6, heat treatment of enzyme no, reaction time 1 h
  Decomposition efficiency of glycitin family in soymilk: not detected
pH11.6, heat treatment of enzyme no, reaction time 3 h
  Decomposition efficiency of glycitin family in soymilk: not detected
pH11.6, heat treatment of enzyme no, reaction time 6 h
  Decomposition efficiency of glycitin family in soymilk: not detected
pH11.6, heat treatment of enzyme yes, reaction time 6 h
  Decomposition efficiency of glycitin family in soymilk: 59.7
